# Results reported in patent US20140107171A1, “Methods of Treating an Overweight or Obese Subject” (Zafgen, Inc., priority 2008, published 2014).
# Tested on: diet-induced obese mice
# Test: Weight loss study in diet-induced obese mice, oral administration
# Assay type: in vivo
# Conditions: C57BL/6NTac mice on 60% fat diet; 1.0 mg/kg orally in 10% gelucire in deionised water, once a day for 8 days
# Experimental: A weight loss study is conducted in obese mice. The mice in this study are not genetically obese, BUT prior to and during the study, obesity is induced by a high-fat diet. Twelve week-old C57BL/6NTac mice, are maintained on a 60% fat diet prior to and during the study, are separated into […], eight animals per group. Average body weight of the mice is taken at the start of the study.
# Each of six groups is orally administered 1.0 mg/kg of a compound disclosed herein in 10% gelucire in DEIONISED water. Each of these six groups is administered a different compound. One group is orally administered fumagillin at 1.0 mg/kg in 10% gelucire in deionised water, and one group is administered 10% gelucire in deionised water (vehicle). Mice receive administrations once a day for 8 days.
structure (smiles),measurement,value
CO[C@@H]1[C@H](OC(=O)/C=C/C=C/C=C/C=C/C(=O)O)CC[C@]2(CO2)[C@H]1[C@@]1(C)O[C@@H]1CC=C(C)C [fumagillin],body weight change over the course of the 8 days,weight over the course of the 8 days
